Results published in patent publication US8338473B2, “Derivatives of psammaplin A, a method for their synthesis and their uses for the prevention or treatment of cancer” (Centre National de la Recherche Scientifique, priority 2007, dated 2012).

Tests used:
human recombinant SIRT2 = human recombinant SIRT2 (Homo sapiens, UniProt Q8IXJ6); assay: SIRT activity assay, SIRT2; assay type: biochemical
Method: FIG. 13A: % of SIRT1 and SIRT2 activity with controls, sodium suramine, a sirtuin inhibitor, and resveratrol a SIRT1 activator, and with UVI5008 at concentrations of 50 μM and 5 μM.
The SIRT activity assay was performed using the human recombinant SIRT1 and SIRT2. SIRT1 (1 U/well) or SIRT2 (5 U/well), respectively, were incubated (37° C. for 1 h) with the SIRT1/2 substrate (corresponding to a p53 acetylated peptide) in the presence of NAD^+ and various concentrations of tested compounds (sirtuins activators or inhibitors). Activity was measured as fluorescence intensity. As internal controls, sodium suramin, a sirtuin inhibitor, and resveratrol, a SIRT1 activator, have been included. The fluorescence was measured on a fluorometric reader (Inphinite 200 TECAN) with excitation set at 360 nm and emission detection set at 460 nm

RARβ2 promoter = assay: Methylation specific PCR for the RARβ gene; assay type: cell-based; settings: 16 and 24 hrs
Method: FIG. 2: a) Methylation specific PCR for the RARβ gene after 16 and 24 hrs of treatment with the indicated compounds; b) Methylation specific PCR for the p16 gene after 24 hrs of the indicated treatments. Samples are representative of real duplicates; c) p16 expression levels in U937 cells after 24 hrs with the indicated treatments; d) DNMT enzymatic in vitro assay carried out with 1.5 and 50 μM of the indicated compounds;
Cells were resuspended into 150 μl of TE (Tris 10 mM—EDTA 1 mM). 1.5 mL of lysis buffer (10 mM Tris pH 8.0—0.1 mM EDTA pH 8.0—0.5% SDS—20 μg/ml Rnase Dnase-free) were added, and after an incubation time of 1 h at 37° C., a second incubation at 56° C. with proteinase K at 100 μg/ml final concentration was performed over night. Proteins were removed by phenol-chloroform extraction. The genomic DNA was then precipitated with 0.2 vol. of 10M ammonium acetate and 2 vol. ethanol, and centrifuged at 13000 rpm for 5 min. The DNA pellet was washed with 70% ethanol, air dried and resuspended in nuclease free water at 4° C. on rocking table. The concentration was measured at 260 nm. […]
20 μg of genomic DNA (or in vitro methylated DNA) were mixed with 5.5 μl of 3M NaOH, the volume was adjusted to 55.5 μl with filtered water. […] The PCR product (10 μl+5 μl loading dye) was analyzed on 1.5% agarose gel.

histone H3, H3K56 = assay: Post-translational modifications on histone proteins (mass spectrometry, SILAC); assay type: cell-based, human; settings: U937 (and other) cells, 24 h, 5 μM
Method: U937 cells were grown in RPMI medium in the presence of lysine and arginine (‘light’) or istope versions, Arg10 and Lys8 (‘heavy’). […]. As controls, cell grown in heavy medium were treated for 24 h with DMSO. Light and heavy cells were 7.5×10^6 cells harvest and mixed in 1:1 ratio (total 15×10^6 cells). The cells were washed twice with PBS and the cell pellet was stored at −80° C.
Cells were resuspended in 750 μl Triton Extraction Buffer (TEB: PBS containing 0.5% Triton X 100 (v/v), 2 mM phenylmethylsulfonyl fluoride (PMSF) and 0.02% (w/v) NaN3) and lysed on ice for 10 min with gentle stirring. The lysate was centrifuged for 10 min at 6000 rpm and the supernatant discarded. The pellet was washed with 375 μl of TEB and peletted by centrifugation as before. Pellet is resuspended in 20 μl 250 mM HCl and acid extraction of the histones was performed o/n at 4° C.
Extracted histones were cleared by centrifugation and separated on a 15% acrylamide gel and the gel was stained with Coomassie. The gel region containing the histones was sliced, reduced and alkylated in gel. Proteins were digested o/n with trypsin (Promega). Peptides were eluted from the gel with trifluoroacetic acid. […]
U937 cells were treated with UVI5008 for 24 hrs and histones were acid extracted. Proteins were digested with trypsin and the peptides were analysed using a nanoLC that is online with a FT-ICR mass spectrometer. […]

Chain of human recombinant SIRT2 (Q8IXJ6 whole entry): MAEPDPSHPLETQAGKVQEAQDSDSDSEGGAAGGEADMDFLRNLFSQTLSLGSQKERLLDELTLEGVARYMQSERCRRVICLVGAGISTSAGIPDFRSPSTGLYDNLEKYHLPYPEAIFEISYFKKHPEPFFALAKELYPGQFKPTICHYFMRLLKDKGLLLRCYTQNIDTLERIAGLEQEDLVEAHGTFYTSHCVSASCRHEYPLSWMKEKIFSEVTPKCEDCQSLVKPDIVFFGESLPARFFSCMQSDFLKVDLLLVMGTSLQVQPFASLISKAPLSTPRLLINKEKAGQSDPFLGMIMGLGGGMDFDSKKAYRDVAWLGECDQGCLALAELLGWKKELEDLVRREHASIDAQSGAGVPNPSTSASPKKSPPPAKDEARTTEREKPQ

O=C(NCCSSCCNC(=O)C(Cc1c[nH]c2ccc(Br)cc12)=NO)C(Cc1c[nH]c2ccc(Br)cc12)=NO [UVI5008]
IC50 (human recombinant SIRT2): 7.8 µM
unmethylated RARβ2 (MSP) (RARβ2 promoter): significant increase
post-translational modifications on histone proteins (histone H3, H3K56): identification of a novel acetylated lysine residue in histone H3, H3K56
